Source: ChEMBL document CHEMBL1201862, “PubChem BioAssay data set” (2004)
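Results reflect a 48-hour exposure of cells in 96-well plates to compound at five concentrations. GI50 = concentration required for 50% inhibition of growth.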 Active and inactive are the calls of the source. Rule as the data show it: active = GI50 up to about 1.1 µM and inactive = higher.

What was measured:
Test in all cases: DTP human tumour cell line panel, 48 h
786-0 = test system: 786-0
A498 = test system: A498
A549 = test system: A549
ACHN = test system: ACHN
BT-549 = test system: BT-549
CAKI-1 = test system: CAKI-1
CCRF-CEM = test system: CCRF-CEM
COLO 205 = test system: COLO 205
DU-145 = test system: DU-145
EKVX = test system: EKVX
HCC 2998 = test system: HCC 2998
HCT-116 = test system: HCT-116
HCT-15 = test system: HCT-15
HL-60 = test system: HL-60
HOP-62 = test system: HOP-62
HOP-92 = test system: HOP-92
HT-29 = test system: HT-29
Hs-578T = test system: Hs-578T
IGROV-1 = test system: IGROV-1
K562 = test system: K562
KM12 = test system: KM12
LOX IMVI = test system: LOX IMVI
M14 = test system: M14
MCF7 = test system: MCF7
MDA-MB-231 = test system: MDA-MB-231
MDA-MB-435 = test system: MDA-MB-435
MOLT-4 = test system: MOLT-4
Malme-3M = test system: Malme-3M
NCI-H226 = test system: NCI-H226
NCI-H23 = test system: NCI-H23
NCI-H460 = test system: NCI-H460
NCI-H522 = test system: NCI-H522
NCI/ADR-RES = test system: NCI/ADR-RES
OVCAR-3 = test system: OVCAR-3
OVCAR-4 = test system: OVCAR-4
OVCAR-5 = test system: OVCAR-5
OVCAR-8 = test system: OVCAR-8
PC-3 = test system: PC-3
RPMI-8226 = test system: RPMI-8226
RXF 393 = test system: RXF 393
SF-268 = test system: SF-268
SF-295 = test system: SF-295
SF-539 = test system: SF-539
SK-MEL-28 = test system: SK-MEL-28
SK-MEL-5 = test system: SK-MEL-5
SK-OV-3 = test system: SK-OV-3
SN12C = test system: SN12C
SNB-19 = test system: SNB-19
SR = test system: SR
SW-620 = test system: SW-620
T47D = test system: T47D
TK-10 = test system: TK-10
U-251 = test system: U-251
UACC-257 = test system: UACC-257
UACC-62 = test system: UACC-62
UO-31 = test system: UO-31

For `O=C1/C(=C/C=C/c2ccccc2)CCC1CNc1ccc(Br)cc1` (centres undefined), the GI50 (786-0) was 82.2 µM (inactive), the GI50 (A498) was 68.9 µM (inactive) and the GI50 (A549) was 53 µM (inactive). For the same molecule, the GI50 (ACHN) was 6.53 µM (inactive), the GI50 (BT-549) was > 100 µM (inactive) and the GI50 (CAKI-1) was > 100 µM (inactive). For the same molecule, the GI50 (CCRF-CEM) was 22.7 µM (inactive), the GI50 (COLO 205) was 20.8 µM (inactive) and the GI50 (DU-145) was 40.2 µM (inactive). For the same molecule, the GI50 (EKVX) was > 100 µM (inactive), the GI50 (HCC 2998) was 78 µM (inactive) and the GI50 (HCT-116) was 37.9 µM (inactive). For the same molecule, the GI50 (HCT-15) was 4.86 µM, the GI50 (HL-60) was 17.1 µM (inactive) and the GI50 (HOP-62) was > 100 µM (inactive). For the same molecule, the GI50 (HOP-92) was > 100 µM (inactive), the GI50 (HT-29) was > 100 µM (inactive) and the GI50 (Hs-578T) was > 100 µM (inactive). The GI50 (IGROV-1) was 46.8 µM (inactive), the GI50 (K562) was 27.1 µM (inactive) and the GI50 (KM12) was 15.2 µM (inactive). The GI50 (LOX IMVI) was > 100 µM (inactive), the GI50 (M14) was 77.6 µM (inactive) and the GI50 (MCF7) was 21 µM (inactive). For the same molecule, the GI50 (MDA-MB-231) was 23.1 µM (inactive), the GI50 (MDA-MB-435) was 44.5 µM (inactive) and the GI50 (MOLT-4) was 24.3 µM (inactive). For the same molecule, the GI50 (Malme-3M) was 0.106 µM (active), the GI50 (NCI-H226) was > 100 µM (inactive) and the GI50 (NCI-H23) was > 100 µM (inactive). The GI50 (NCI-H460) was 72.1 µM (inactive), the GI50 (NCI-H522) was 21.3 µM (inactive) and the GI50 (NCI/ADR-RES) was > 10 µM (inactive). For the same molecule, the GI50 (OVCAR-3) was > 100 µM (inactive), the GI50 (OVCAR-4) was 57.7 µM (inactive) and the GI50 (OVCAR-5) was > 100 µM (inactive). The GI50 (OVCAR-8) was > 100 µM (inactive), the GI50 (PC-3) was 79.3 µM (inactive) and the GI50 (RPMI-8226) was 5.47 µM (inactive). The GI50 (RXF 393) was > 100 µM (inactive), the GI50 (SF-268) was > 100 µM (inactive) and the GI50 (SF-295) was > 100 µM (inactive). The GI50 (SF-539) was > 100 µM (inactive), the GI50 (SK-MEL-28) was > 100 µM (inactive) and the GI50 (SK-MEL-5) was 47.5 µM (inactive). The GI50 (SK-OV-3) was 88.1 µM (inactive), the GI50 (SN12C) was 4.51 µM (inactive) and the GI50 (SNB-19) was > 100 µM (inactive). The GI50 (SR) was 23.3 µM (inactive), the GI50 (SW-620) was 88.7 µM (inactive) and the GI50 (T47D) was 34.1 µM (inactive). For the same molecule, the GI50 (TK-10) was 43.3 µM (inactive), the GI50 (U-251) was > 100 µM (inactive) and the GI50 (UACC-257) was > 100 µM (inactive). The GI50 (UACC-62) was 6.92 µM (inactive) and the GI50 (UO-31) was 48.4 µM (inactive).

For `Cn1c2ccccc2c2ccc3c(c21)C(=O)c1ccccc1C3=O`, the GI50 (786-0) was 17.6 µM (inactive), the GI50 (A498) was > 10 µM (inactive) and the GI50 (A549) was 24.7 µM (inactive). For the same molecule, the GI50 (ACHN) was 12.4 µM (inactive), the GI50 (BT-549) was 21.1 µM (inactive) and the GI50 (CAKI-1) was 22.2 µM (inactive). For the same molecule, the GI50 (CCRF-CEM) was 3.02 µM (inactive), the GI50 (COLO 205) was 26.6 µM (inactive) and the GI50 (DU-145) was 84.5 µM (inactive). The GI50 (EKVX) was 12.5 µM (inactive), the GI50 (HCC 2998) was 41.9 µM (inactive) and the GI50 (HCT-116) was 17.3 µM (inactive). For the same molecule, the GI50 (HCT-15) was 15.1 µM, the GI50 (HL-60) was 2.75 µM (inactive) and the GI50 (HOP-62) was 18 µM (inactive). The GI50 (HOP-92) was 18.9 µM (inactive), the GI50 (HT-29) was 16.9 µM (inactive) and the GI50 (Hs-578T) was 14.1 µM (inactive). The GI50 (IGROV-1) was 13.8 µM (inactive), the GI50 (K562) was 11.8 µM (inactive) and the GI50 (KM12) was 27.8 µM (inactive). For the same molecule, the GI50 (LOX IMVI) was 15.9 µM (inactive), the GI50 (M14) was 27.2 µM (inactive) and the GI50 (MDA-MB-231) was 19.5 µM (inactive). For the same molecule, the GI50 (MDA-MB-435) was 16 µM (inactive), the GI50 (Malme-3M) was 5.86 µM (inactive) and the GI50 (NCI-H226) was 30.1 µM (inactive). The GI50 (NCI-H23) was 15.7 µM (inactive), the GI50 (NCI-H522) was 15.1 µM (inactive) and the GI50 (NCI/ADR-RES) was 13.7 µM (inactive). The GI50 (OVCAR-3) was 12.9 µM (inactive), the GI50 (OVCAR-4) was 17.5 µM (inactive) and the GI50 (OVCAR-5) was > 100 µM (inactive). For the same molecule, the GI50 (OVCAR-8) was 17.3 µM (inactive), the GI50 (PC-3) was 13 µM (inactive) and the GI50 (RPMI-8226) was 12.2 µM (inactive). For the same molecule, the GI50 (RXF 393) was 15.8 µM (inactive), the GI50 (SF-268) was 18.7 µM (inactive) and the GI50 (SF-295) was 18.2 µM (inactive). For the same molecule, the GI50 (SF-539) was 17.3 µM (inactive), the GI50 (SK-MEL-28) was 14.6 µM (inactive) and the GI50 (SK-MEL-5) was 13.2 µM (inactive). The GI50 (SK-OV-3) was 15.8 µM (inactive), the GI50 (SN12C) was 20.6 µM (inactive) and the GI50 (SNB-19) was 37.8 µM (inactive). The GI50 (SR) was 3.29 µM (inactive), the GI50 (SW-620) was 28.2 µM (inactive) and the GI50 (T47D) was 11.7 µM (inactive). For the same molecule, the GI50 (TK-10) was 14.4 µM (inactive), the GI50 (U-251) was 16.4 µM (inactive) and the GI50 (UACC-257) was 19.5 µM (inactive). For the same molecule, the GI50 (UACC-62) was 16.7 µM (inactive) and the GI50 (UO-31) was 25.5 µM (inactive).
